Legend:
[1] = tested on: TRPV3-4M/V2P; experiment: Two-electrode voltage clamp, TRPV3-4M/V2P chimera in oocytes; assay type: cell-based, mouse; conditions: RTx 100 nM, 2-APB 3 mM, room temperature, ±60 mV
Protocol: (§1) All channel constructs were expressed in Xenopus laevis oocytes and studied using the two-electrode voltage clamp technique (TEVC) following 1–4 days of incubation after cRNA injection. The animal care and experimental procedures were performed in accordance with the Guide for the Care and Use of Laboratory Animals and were approved by the Animal Care and Use Committee of the National Institute of Neurological Disorders and Stroke (Animal protocol number 1253–17). Oocytes were removed surgically and incubated with agitation for 1 hr in a solution containing (in mM) 82.5 NaCl, 2.5 KCl, 1 MgCl2, 5 HEPES, pH 7.6 (with NaOH), and collagenase (2 mg/ml; Worthington Biochemical, Lakewood, NJ). Defolliculated oocytes were injected with cRNA for each of the constructs and incubated at 17°C in a solution containing (in mM) 96 NaCl, 2 KCl, 1 MgCl2, 1.8 CaCl2, 5 HEPES, pH 7.6 (with NaOH), and gentamicin (50 μg/ml, GIBCO-BRL, Gaithersburg, MD). Oocyte membrane voltage was controlled using an OC-725C oocyte clamp (Warner Instruments, Hamden, CT). Data were filtered at 1–3 kHz and digitized at 20 kHz using pClamp software (Molecular Devices, Sunnyvale, CA) and a Digidata 1440A digitizer (Axon Instruments). Microelectrode resistances were 0.1–1 MΩ when filled with 3 M KCl. For recording TRP channel currents, the external recording solution contained (in mM) 100 KCl, 10 HEPES, pH 7.6 (with KOH). […]

[2] = tested on: TRPV3 single point mutants (V587L, F625L, F656I and F666Y); conditions: 2-APB 3 mM, room temperature
Protocol: All channel constructs were expressed in Xenopus laevis oocytes and studied using the two-electrode voltage clamp technique (TEVC) following 1–4 days of incubation after cRNA injection. The animal care and experimental procedures were performed in accordance with the Guide for the Care and Use of Laboratory Animals and were approved by the Animal Care and Use Committee of the National Institute of Neurological Disorders and Stroke (Animal protocol number 1253–17). Oocytes were removed surgically and incubated with agitation for 1 hr in a solution containing (in mM) 82.5 NaCl, 2.5 KCl, 1 MgCl2, 5 HEPES, pH 7.6 (with NaOH), and collagenase (2 mg/ml; Worthington Biochemical, Lakewood, NJ). […]
For temperature-activation experiments, calcium-activated chloride currents were minimized by using calcium-free solution containing 30 µM Caccinh-A01 and recording at negative membrane voltages. Heat stimuli were achieved by passing the external recording solution through glass capillary spirals immersed in a water bath maintained at about 70°C, and recordings were performed during constant perfusion with temperature measured using a thermistor (TA-29, Warner Instruments) located close to the cell. […] The mean I vs T relations were calculated by automatically binning each of the recordings in temperature intervals of 2°C, and averaging a single data point within each interval per cell. […]

[3] = tested on: TRPV3-6M + V587L, A606V, F625L, F656I or F666Y; experiment: Two-electrode voltage clamp, TRPV3-6M with individual pore mutations (strong RTx responders); assay type: cell-based, mouse; conditions: RTx 100 nM, room temperature; magnitude very similar to 2-APB 3 mM
Protocol: as §1

[4] = molecular target: T1, rat TRPV2-4M (Rattus norvegicus, UniProt Q9WUD2, F472S/L507M/L510T/Q530E); set-up: method as in Zhang et al., 2016; conditions: ref Zhang et al., 2016; cited from earlier work
T1 construct: expressed in transfected cells; host or cells: Xenopus laevis oocytes
T1 sequence (Q9WUD2 1-761 F472S/L507M/L510T/Q530E): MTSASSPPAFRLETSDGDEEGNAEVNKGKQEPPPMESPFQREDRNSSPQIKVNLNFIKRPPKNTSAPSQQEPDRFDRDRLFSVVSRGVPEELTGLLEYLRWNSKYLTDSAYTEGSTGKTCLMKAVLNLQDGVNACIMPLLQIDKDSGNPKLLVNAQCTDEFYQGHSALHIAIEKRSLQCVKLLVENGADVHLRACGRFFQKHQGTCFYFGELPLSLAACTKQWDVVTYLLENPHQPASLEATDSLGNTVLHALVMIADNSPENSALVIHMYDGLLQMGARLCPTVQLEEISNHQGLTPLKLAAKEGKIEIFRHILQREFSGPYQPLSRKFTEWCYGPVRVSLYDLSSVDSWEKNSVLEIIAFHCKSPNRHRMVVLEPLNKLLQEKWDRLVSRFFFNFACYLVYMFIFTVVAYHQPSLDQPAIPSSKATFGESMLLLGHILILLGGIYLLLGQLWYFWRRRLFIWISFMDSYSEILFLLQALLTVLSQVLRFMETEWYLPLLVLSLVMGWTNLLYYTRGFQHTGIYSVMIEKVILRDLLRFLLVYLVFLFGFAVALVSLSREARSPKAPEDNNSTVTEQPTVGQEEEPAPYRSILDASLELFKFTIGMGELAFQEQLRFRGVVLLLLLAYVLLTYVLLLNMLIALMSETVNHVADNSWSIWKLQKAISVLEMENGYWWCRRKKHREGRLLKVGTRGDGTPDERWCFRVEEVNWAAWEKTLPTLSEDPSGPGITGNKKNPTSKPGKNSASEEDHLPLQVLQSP

SMILES	channel activation (current response) [1]	channel activation (current response) [2]	channel activation (current response) [3]	saturating concentration of RTx [4] [nM]
NCCOB(c1ccccc1)c1ccccc1 [2-APB, 2-aminoethoxydiphenyl borate]	could be activated	strong responses	–	–
C=C(C)[C@]12C[C@@H](C)[C@@]34O[C@](Cc5ccccc5)(O[C@@H]1[C@@H]3C=C(COC(=O)Cc1ccc(O)c(OC)c1)C[C@]1(O)C(=O)C(C)=C[C@@H]41)O2 [RTx, resiniferatoxin]	–	–	robust RTx-activated currents	100
